Experimental data from patent US8729048B2, “Methods and materials for assessing responsiveness to PARP inhibitors and platinating agents” (Mayo Foundation for Medical Education and Research, priority 2011, dated 2014).

Legend:
[1] = tested on: DNA-PK substrates (DNA-PKcs Thr2609, Histone H2AX Ser139) in PEO1 cells; assay: Immunoblotting for phosphorylation of DNA-PK substrates; type: cell-based; conditions: 72 hours
Description: FIG. 2. DNA-PK is activated following PARP inhibitor exposure in PEO1 cells. (A) Western blots for poly(ADP-ribose) polymer (pADPr) and phosphorylation of DNA-PK substrates (DNA-PKcs autophosphorylation at Thr^2609 and Histone H2AX at Ser^139) in PEO1 cells following 72 hours exposure to increasing concentrations of ABT-888 (0, 0.625, 1.25, 2.5, 5, 10, 20, and 40 μM). Hsp90, total DNA-PKcs, and Histone H1 are used as loading controls. (B) Phosphorylation of DNA-PK substrates after treatment for 72 hours with diluent (0.2% DMSO, lanes 1 and 4), 500 nM DNA-PK inhibitor AZ12594248 (DNA-PKi, lanes 2 and 5), or 5 μM ATM inhibitor KU55933 (ATMi, lanes 3 and 6) alone (lanes 1-3) or in combination with 20 μM ABT-888 (lanes 4-6). (C) Quantitation of cells positive for phospho-H2AX foci in PEO1 and PEO4 cells, following treatment with DMSO, 500 nM DNA-PKi, 20 μM ABT-888 (ABT), ABT-888 and DNA-PKi, 50 μM Etoposide (Etop), or 5 Gy ionizing radiation (IR). Cells were exposed to ABT-888 and/or DNA-PKi for 72 hours, etoposide for 1 hour, or allowed to recover for 1 hour after IR. Results are reported as mean±SEM of 3 independent experiments. (D) Confocal images of PEO1 cells treated as in […]. Phospho-Ser^139-H2AX is shown in green, phospho-Thr^2609-DNA-PKcs in red, and Hoechst 33258 in blue.
Cells were washed twice with calcium- and magnesium-free Dulbecco's phosphate-buffered saline (PBS) and solubilized in 6 M guanidine hydrochloride containing 250 mM Tris-HCl, pH 8.5 at 20° C., 10 mM EDTA, 1% (v/v) 2-mercaptoethanol, and 1 mM freshly added phenylmethylsulfonyl fluoride. After preparation for electrophoresis as described elsewhere (Kaufmann et al., Blood, 89:2098-2104 (1997)), aliquots containing 50 μg of protein (determined by the bicinchoninic acid method—S10) were separated on SDS-polyacrylamide gels containing 8% (w/v) acrylamide, electrophoretically transferred to nitrocellulose, and probed with immunological reagents as described elsewhere (Kaufmann, Anal. Biochem., 296:283-286 (2001)). […]

[2] = tested on: BRCA2-deficient PEO1 cells; assay: Clonogenic assay, PEO1; type: cell-based
Description: FIG. 5. NHEJ is a major contributor to PARP inhibitor effects in BRCA2-deficient cells. (A) Western blots showing knockdown of Ku80 in PEO1 and PEO4 cells. (B) Clonogenic survival of PEO1 and PEO4 cells from (A), which were treated with the indicated ABT-888 concentration for 72 hours, washed, and allowed to form colonies. (C) Western blots following treatment with siRNA targeting luciferase (control), Ku80, PARP1, or both Ku80 and PARP1. (D) Clonogenic viability of PEO 1 and PEO4 cells from (C). Following knockdown, cells were plated onto triplicate plates and allowed to form colonies. (E) Clonogenic survival of PEO1 cells following Artemis knockdown. After treatment with the indicated siRNA, plates were treated with indicated concentration of ABT-888 for 72 hours, washed, and allowed to form colonies. Inset, Western blots showing knockdown using luciferase (control) or Artemis siRNAs in PEO1 cells. (F) Clonogenic survival of PEO1 and PEO4 cells treated for 72 hours with ABT-888 in combination with diluent or 500 nM DNA-PKi. All results are reported as means of triplicate plates±SEM, and are representative of 3 independent experiments.
FIG. 13. DNA-PK inhibition diminishes the lethality of multiple PARP inhibitors in PEO1 cells. (A) Representative clonogenic plates after PEO1 cells were treated with ABT-888 (0, 5, or 20 μM) with or without 500 nM DNA-PKi. (B, C) Bar graphs comparing clonogenic survival of PEO1 cells exposed to two PARP inhibitors with or without 500 nM DNA-PKi. The PARP inhibitors used for these assays are ABT-888 (B) and AZD2281/olaparib (C). Results are reported as mean±SEM of triplicate plates.
FIG. 18. Artemis knockdown confers resistance to PARP inhibition and cisplatin in BRCA2-deficient/mutant cells. Clonogenic survival assays of PEO1 shRNA lines continuously exposed to ABT-888 (A) or cisplatin (B), or exposed to ionizing radiation (C). (D-F) Clonogenic survival assays of CAPAN1 shRNA lines exposed to ABT-888 (D), cisplatin (E), or exposed to ionizing radiation (F).
Colony formation assays were performed on siRNA-transfected PEO1 and PEO4 cells 48 hours after the second transfection. Cells were trypsinized and plated at 750 cells/plate in triplicate 60-mm dishes containing medium A, allowed to grow 10-14 days, and stained with Coomassie Brilliant Blue. Colonies containing ≧50 cells were scored manually. To assess methyl methanesulfonate (MMS) sensitivity, PEO1 or PEO4 cells were incubated for 48 hours after the second siRNA treatment, plated onto 60-mm dishes, allowed to adhere for 4 hours, exposed to the indicated concentration of MMS (Sigma-Aldrich) for 1 hour, washed with sterile RPMI 1640, and allowed to grow into colonies in medium A. For drug treatment, cells (without siRNA) were allowed to adhere for 4-6 hours, then treated with the indicated concentrations of ABT-888 and/or AZ12594248 for 72 hours. Following drug treatment, cells were washed with drug-free RPMI 1640, cultured for 10-14 days in medium A, and stained. For HCC1937 and HCC1937/BRCA1 cells, a similar procedure was used with several changes: 1000 cells were plated in medium B, and treatment was continuous for 16-20 days. M059J and M059J+DNA-PKcs were plated at 1000 cells per plate in medium C and treated for 48 hours. GM16666 and 16667 were plated at 1000 cells per plate in medium D and treated for 48 hours.

Row | SMILES | effect on ABT-888-induced phosphorylation of DNA-PKcs and H2AX ([1]; with 20 μM ABT-888, 500 nM DNA-PKi or 5 μM ATMi) | effect of co-administration on AZD2281 clonogenic lethality ([2]; PEO1 cells, 500 nM DNA-PKi) | effect of co-administration on ABT-888 clonogenic lethality ([2]; PEO1 cells, 500 nM DNA-PKi, 72 hours) | phosphorylation of DNA-PKcs at Thr2609 and H2AX at Ser139 ([1]; ABT-888 0-40 μM) | clonogenic survival ([2]; PEO1 cells, 72 hours) | clonogenic survival with ABT-888 after siRNA depletion of Artemis ([2]; PEO1 cells, Artemis siRNA, 72 hours) | clonogenic survival with ABT-888 after Ku80 knockdown ([2]; PEO1 cells, Ku80 siRNA, 72 hours) | clonogenic sensitivity after stable Artemis knockdown ([2]; PEO1 shRNA lines, continuous exposure)
1 | CCN1CCN(CC(=O)Nc2ccc(-c3cccc4c(=O)cc(N5CCOCC5)oc34)c3sc4ccccc4c23)CC1 [AZ 12594248] | prevented the ABT-888-induced phosphorylation of DNA-PKcs and H2AX | diminished the effects | diminished the effects | – | – | – | – | –
2 | C[C@]1(c2nc3c(C(N)=O)cccc3[nH]2)CCCN1 [ABT-888] | – | – | – | phosphorylated in a dose-dependent manner | decreased the clonogenic survival | reversed the lethality | markedly enhanced the survival | conferred resistance
